Data on 7 molecules can be found in ChEMBL document CHEMBL5154858, “Pocket-to-Lead: Structure-Based De Novo Design of Novel Non-peptidic HIV-1 Protease Inhibitors Using the Ligand Binding Pocket as a Template” (J Med Chem, 2022).

One may read the IC50 as the concentration that inhibits the measured activity by half. A word on the EC50: it is the concentration giving half of the maximal effect.

In assay [1] the target is Human immunodeficiency virus type 1 protease (Human immunodeficiency virus 1, UniProt Q72874). Briefly: Inhibition of wild type HIV1 protease expressed in Escherichia coli BL21 DE3 assessed as cleavage of fluorogenic substrate using EDANS-RESGIFLETSKR-DABCYL preincubated for 15 mins with compound followed by substrate addition and measured after 60 mins by microplate reader analysis.

The subject of assay [2] is Human immunodeficiency virus 1. Briefly: Antiviral activity against HIV-1 IIIB infected in human MT4 cells assessed as inhibition of virus-induced cell death preincubated for 1 hr with compound followed by viral infection measured after 5 days by MTT assay. In kind it is functional, organism-based. The settings on record: Human immunodeficiency virus 1, IIIB. For orientation: Tetrazolium assays rely on reduction of a dye to a coloured formazan, in cell work by metabolically active cells.

With `CCC[C@]1(c2ccc(S(C)(=O)=O)cc2)C(=O)N(Cc2ccc(OC)cc2)C[C@@H]1O` (mixture of isomers), in assay [1], the IC50 came out at 32 µM.
Same read-out and setting: for `COc1ccc(CN2C[C@@H](O)[C@@](Cc3ccc(F)cc3)(c3ccc(S(C)(=O)=O)cc3)C2=O)cc1` (mixture of isomers) the value was 77 µM.
Take `COc1ccc(CN2C[C@H](O)[C@@](CCC(C)C)(c3ccc(S(C)(=O)=O)cc3)C2=O)cc1` (mixture of isomers): the IC50 in assay [1] is 2 µM. The EC50 in assay [2] was over 20 µM.
In the case of `COc1ccc(CN2C[C@H](O)[C@@](CC(C)C)(c3ccc(S(C)(=O)=O)cc3)C2=O)cc1` (mixture of isomers), the IC50 in assay [1] was determined as 34 µM.
Consider `COc1ccc(CN2C[C@H](O)[C@@](CCC(C)C)(c3ccc(S(C)(=O)=O)cc3OC(C)C)C2=O)cc1` (mixture of isomers), for which the IC50 in assay [1] is 0.082 µM. In assay [2], the concentration for a half-maximal effect (EC50) was found to be 11 µM.
For `COc1ccc(CN2C[C@H](O)[C@@](CCC(C)C)(c3ccc(S(C)(=O)=O)cc3O[C@@H](C)CO)C2=O)cc1` (mixture of isomers), the IC50 in assay [1] was found to be 0.0071 µM. Further, the EC50 in assay [2] worked out at 0.86 µM.
Take `COc1ccc(CN2C[C@H](O)[C@@](Cc3ccc(F)cc3)(c3ccc(S(C)(=O)=O)cc3)C2=O)cc1` (racemic): the IC50 in assay [1] stood at 54 µM.
